In brackets after ≈: the same amount, converted by molar mass. Where two headings read alike, the source gives them in different places.
Tests used:
Format in all cases: cell-based
[1] = test system: E. coli ATCC 25922 wild type and mutants; test: MIC in M9 minimal media; settings: Escherichia coli, read-out: MICs in M9 minimal media
Experimental: (§1) Spontaneous Resistance Frequency was determined in vitro for GSK2251052 and the resistance mutants in E. coli ATCC 25922, K. pneumoniae ATCC 13883, and P. aeruginosa ATCC 27853 strains were characterized. GSK2251052 was prepared as described in U.S. Pat. No. 7,816,344 (the entire contents of which are hereby incorporated by reference herein). LB broth, Mueller Hinton II broth (adjusted), and Difco noble agar were obtained from Becton Dickinson (Cockeysville, Md., USA). M9 minimal broth containing 1×M9 salt, 0.5 μg/ML thiamine, 1 mM MgSO4, 0.1 mM CaCl2, 2% glucose, was obtained from Teknova (Hollister, Calif., USA). Antibacterial agents ciprofloxacin, ceftazidime, chloramphenicol, gentamycin, kanamycin, polymixin B, tobramycin and trimethoprim, and amino acids were obtained from Sigma Chemicals (St. Louis, Mo., USA). Strains were obtained from ATCC (Manassas, Va., USA).
(§2) Susceptibility tests were performed following the recommendations for aerobic bacteria (M7-A7) from the Clinical and Laboratories Standards Institute (CLSI).
(§3) The aminoacyl-tRNA synthetase enzyme, LeuRS, ensures the correct amino acid, leucine, is attached to tRNA^Leu. The LeuRS synthetic active site is capable of aminoacylating tRNA^Leu with amino acids structural similar to leucine (norvaline, norleucine, isoleucine and methionine). These mischarged tRNA^Leu are hydrolyzed by the editing domain, thus preventing the deleterious incorporation of incorrect amino acids into the growing polypeptide. The laboratory generated mutants were further tested for their ability to grow in defined media with exogenously added amino acids. Norvaline and norleucine, structurally similar to leucine, were tested in M9 minimal media. […]

[2] = test system: K. pneumoniae ATCC 13883 wild type and mutants; test: MIC in M9 minimal media; settings: Klebsiella pneumoniae, read-out: MICs in M9 minimal media
Experimental: as §1, §2, §3

[3] = test system: P. aeruginosa ATCC 27853 wild type and mutants; test: MIC in M9 minimal media; settings: Pseudomonas aeruginosa, read-out: MICs in M9 minimal media
Experimental: as §1, §2, §3

[4] = test system: P. aeruginosa ATCC 27853, E. coli ATCC 25922 and K. pneumoniae ATCC 13883; test: MIC in M9 minimal media, three strains summarised; settings: all GSK2251052 resistant mutants
Experimental: as §1, §2
The aminoacyl-tRNA synthetase enzyme, LeuRS, ensures the correct amino acid, leucine, is attached to tRNA^Leu. The LeuRS synthetic active site is capable of aminoacylating tRNA^Leu with amino acids structural similar to leucine (norvaline, norleucine, isoleucine and methionine). […]

[5] = test system: E. coli isolates from subject E. coli 1; test: MIC in M9 minimal media of clinical isolates, subject E. coli 1; settings: Escherichia coli
Experimental: The E. coli and P. mirabilis strains were cultured on Trypticase Soy Agar/5% blood plates (Becton Dickinson BBL), in cation adjusted Mueller-Hinton II Broth, or in M9 minimal salts (Becton Dickinson) broth containing 0.4% glucose and 200 uM MgSO4. L-Norvaline (Sigma-Aldrich) was prepared at a concentration of 6.4 mg/ml in […], in a final volume of approx 0.5 ml, and stored at −20° C. until required.
Minimum inhibitory concentrations (MICs) were determined using the CLSI (Clinical and Laboratory Standards Institute, formerly NCCLS) recommended broth microdilution methodology [NCCLS, 2003] using defined media.
Throughout this study E. coli and P. mirabilis strains were cultured on Trypticase Soy Agar/5% blood plates, on M9 salts/1.2% Bacto Agar plates, in Cation Adjusted Mueller-Hinton II Broth (CAMHB), or in M9 Minimal Salt Broth containing 0.4% glucose and 200 μM MgSO4. GSK2251052 and norvaline were prepared at a concentration of 6.4 mg/mL (free base) in 100% DMSO and 100% water respectively, aliquoted in 0.5 mL individual stocks, and stored at −20° C. until required.
Minimum inhibitory concentrations (MICs) were determined for each organism using the CLSI (Clinical and Laboratory Standards Institute) recommended broth microdilution methodology [CLSI, 2009].
Strains tested are detailed in Table 15. MICs for norvaline and GSK2251052 could only be determined for E. coli isolates from subject E. coli 1 (Table 16) as M9 Minimal Media could not sustain growth of E. coli isolates from subject E. coli 2 (isolates 2a-2o) or P. mirabilis isolates (isolates 3a-3c) from subject E. coli 3. […] This phenotype is consistent with a mutation in the editing site of LeuRS, which could also be responsible for the concomitant decrease in susceptibility to GSK2251052 observed in isolates from Days 2, 3 and 4 (Table 16).

[6] = test system: Escherichia coli 1161435 parent and mutant strains B4, B26 and B35; test: Sensitivity to leucine analogs in MH and M9 media
E. coli = test: Inhibition of bacterial growth on agar plates; settings: preliminary studies

CCC[C@H](N)C(=O)O [Norvaline, L-Norvaline]
MIC ([1]; ATCC25922, E 101(leuRS Y246H)): 4 µg/mL (≈ 34.1 µM)
MIC ([1]; ATCC25922, E 102(leuRS D345G)): 0.5 µg/mL (≈ 4.27 µM)
MIC ([1]; ATCC25922, E 107(leuRS G229S)): 1 µg/mL (≈ 8.54 µM)
MIC ([1]; ATCC25922, E. coli ATCC25922): 32 µg/mL (≈ 273 µM)
MIC ([2]; ATCC13883, K 104(leuRS D345Y)): 1 µg/mL (≈ 8.54 µM)
MIC ([2]; ATCC13883, K 105(leuRS G229R)): 4 µg/mL (≈ 34.1 µM)
MIC ([2]; ATCC13883, K 107(leuRS S227F)): 4 µg/mL (≈ 34.1 µM)
MIC ([2]; ATCC13883, K 108(leuRS T248P)): 2 µg/mL (≈ 17.1 µM)
MIC ([2]; ATCC13883, K 110(leuRS V338L)): 4 µg/mL (≈ 34.1 µM)
MIC ([2]; ATCC13883, Klebsiella pneumoniae ATCC13883): 16 µg/mL (≈ 137 µM)
MIC ([3]; ATCC27853, P 101 (leuRS T256P)): 4 µg/mL (≈ 34.1 µM)
MIC ([3]; ATCC27853, P 106 (leuRS V342M)): 0.25 µg/mL (≈ 2.13 µM)
MIC ([3]; ATCC27853, P 108 (leuRS T252P)): 0.25 µg/mL (≈ 2.13 µM)
MIC ([3]; ATCC27853, P. aeruginosa ATCC27853): > 64 µg/mL
sensitivity of the resistant mutants [4]: High sensitivity
MIC ([5]; 24 h, Isolate 1a, Blood, Day 1, read-out: MIC in M9 Minimal Media): 4 µg/mL (≈ 34.1 µM)
MIC ([5]; 24 h, Isolate 1b, Urine, Day 1, read-out: MIC in M9 Minimal Media): 2 µg/mL (≈ 17.1 µM)
MIC ([5]; 24 h, subject E. Coli 1, day 1, first line, no LeuRS change, read-out: Norvaline MIC in M9): 4 µg/mL (≈ 34.1 µM)
MIC ([5]; 24 h, subject E. Coli 1, day 1, second line, no LeuRS change, read-out: Norvaline MIC in M9): 2 µg/mL (≈ 17.1 µM)
MIC ([5]; 48 h, Isolate 1c, Blood, Day 2, read-out: MIC in M9 Minimal Media): 0.5 µg/mL (≈ 4.27 µM)
MIC ([5]; 72 h, read-out: Norvaline MIC in M9): 0.5 µg/mL (≈ 4.27 µM)
MIC ([5]; 96 h, Isolate 1e, Blood, Day 4, read-out: MIC in M9 Minimal Media): 0.5 µg/mL (≈ 4.27 µM)
MIC ([5]; Isolate 1d, Blood, Day 3, read-out: MIC in M9 Minimal Media): 0.5 µg/mL (≈ 4.27 µM)
MIC (sensitivity to leucine analogs) ([6]; 1161435 Parent, M9): > 128 µg/mL
MIC (sensitivity to leucine analogs) ([6]; 1161435 Parent, MH): > 128 µg/mL
MIC (sensitivity to leucine analogs) ([6]; B4 (P339L), M9): 2 µg/mL
MIC (sensitivity to leucine analogs) ([6]; B4 (P339L), MH): > 128 µg/mL
MIC (sensitivity to leucine analogs) ([6]; B26 (R334H), M9): 16 µg/mL
MIC (sensitivity to leucine analogs) ([6]; B26 (R334H), MH): > 128 µg/mL
MIC (sensitivity to leucine analogs) ([6]; B35 (D251N), M9): 64 µg/mL
MIC (sensitivity to leucine analogs) ([6]; B35 (D251N), MH): > 128 µg/mL
sensitivity of the mutants ([6]; mutant strains in M9 minimal media): most sensitivity
concentration at which a bacterial lawn could still be observed (E. coli): > 64 µg/mL

Reference: patent US9889146B2, “Benzoxaborole compounds and uses thereof” (priority 2012, dated 2018)
